Patent US8658668B2, “PI3 kinase/mTOR dual inhibitor” (Eli Lilly and Company, priority 2011, dated 2014)

Key:
[1] = tested on: p110α(E545K)/myc leukemic cells; assay: E545Kp110a leukemia model; format: in vivo, mouse; settings: oral gavage, day 5 through day 11, blood on day 12
Text: Leukemia cell line creation: Transduce embryonic liver cells derived from transgenic embryos, B6.Cg-Tg[IghMyc]22Bri/J (Jackson Laboratory, Bar Harbor, Me.), with a retrovirus expressing a clinically-isolated activating mutation of human p110α (E545K as an amino acid change, G1633A on the nucleotide level) under control of the viral 5′ LTR (long terminal repeat) and expressing GFP (green fluorescent protein) under control of the PGK promoter (MSCV6 FLAG-p110α G1633A PGK/GFP) to create target-driven leukemia cells. Transfer the transduced cells into a lethally irradiated host animal. The transduced cells repopulate the hematopoietic stem cells among bone marrow of the recipient and rescue the recipient animal from radiation-induced lethality due to ablation of the recipient's original bone marrow. Observe the rescued primary animals for development of leukemia via weekly monitoring white blood cell counts in a small amount of blood (10 μL) collected retro-orbitally. Collect blood from primary irradiated animals with confirmed leukemia and serially passage to secondary (non-irradiated) host animals in order to establish as a leukemic cell line.
Subject Animals: Use female C57BL/6 mice (Taconic, Cambridge City, Ind.), 8 to 10 week old and 20 to 22 g in weight, as leukemia recipient animals. Acclimate animals on normal low fat diet (4.5%) prior to inoculation and continue on that diet ad libitum for the duration of the study. Identify individual mice from each group by ear punches. Inoculate animals with leukemic cells from donor animals (day 0).
Syngeneic leukemia model: From a donor animal previously inoculated with the leukemic cell line of interest, collect a small amount of blood retro-orbitally (10 μL) and measure the leukemia cell burden by white blood cell count. From animals with sufficient leukemic burden, collect donor blood, dilute with phosphate-buffered saline (PBS) to 500,000 white blood cells per 200 μL and inject 200 μL per animal retro-orbitally on day 0 to initiate leukemia. […]

[2] = tested on: LXFA 983 human tumor xenograft cells; assay: Oncotest tumor clonogenic assay, LXFA 983; format: cell-based; settings: colony formation, NSCLC LXFA 983, adeno carcinoma, pd, read-out: Absolute IC50
[3] = tested on: MEXF 1539 human tumor xenograft cells; assay: Oncotest tumor clonogenic assay, MEXF 1539; format: cell-based; settings: colony formation, Melanoma MEXF 1539, amelanotic melanoma, md, read-out: Absolute IC50
[4] = tested on: P70S6(pT389); assay: AlphaScreen SureFire p-p70S6 kinase (Thr389) in U87MG cells; format: cell-based; settings: Homo sapiens, U-87 MG, 1 h, n = 4, read-out: P70S6(pT389) Absolute IC50
Protocol: This homogeneous assay format uses immuno-sandwich capture of the phosphorylated analyte and then detection with antibody-coated Alphascreen beads to generate an amplified signal.
Maintain U87MG cells in U87MG growth medium consisting of DMEM (GIBCO 11965-092) supplemented with 10% fetal bovine serum (FBS, GIBCO, 10091-141), 1% nonessential amino acids (GIBCO, 11140-050) and 1% sodium pyruvate (GIBCO, 11360-070). Harvest cells using standard cell culture procedures and then count using Vi-Cell. Plate 100 μL of U87MG cells in growth medium (50,000 cells/well) into Costar #3596 96 well plates and incubate overnight at 37° C., 5% CO2.
Incubate for one h at 37° C., then remove the medium and add 50 μL of 1× SureFire Lysis Buffer (TGR Biosciences SureFire® Kit component) to each well and incubate at room temperature for 10 min with gentle shaking Transfer 6 μL lysate and 10 μL reaction mixture (60 parts reaction buffer/10 parts activation buffer/1 part each of donor and acceptor beads, Perkin Elmer, 6760617R) to a 384 well proxiplate (Perkin Elmer, 6006280) for the p-p70S6 kinase (Thr389) and p-AKT(Ser473) assays. Seal the plate and incubate at RT for 4 h. […] Read the plates on a Perkin Elmer EnVision equipped with a TurboModule using standard AlphaScreen® settings (Ex680 nm and Em520-620 nm). […]

[5] = tested on: HNXF 536 human tumor xenograft cells; assay: Oncotest tumor clonogenic assay, HNXF 536; format: cell-based; settings: colony formation, Head and Neck HNXF 536, squamous epithelium carcinoma, wd, read-out: Absolute IC50

Compound: CO[C@@H](C)Cn1c(=O)n(C)c2cnc3ccc(-c4cncc(C(C)(C)O)c4)cc3c21 [Example 1, 8-[5-(1-Hydroxy-1-methylethyl)pyridin-3-yl]-1-[(2S)-2-methoxypropyl]-3-methyl-1,3-dihydro-2H-imidazo[4,5-c]quinolin-2-one]
- % TGI ([1]; 5 mg/kg qd): 50.5%
- % TGI ([1]; 10 mg/kg qd): 76.1%
- % TGI ([1]; 20 mg/kg qd): 90.1%
- IC50 [2]: 103 nM
- IC50 [3]: 246 nM
- IC50 [4]: 10.6 nM
- IC50 [5]: 55 nM
